According to patent US5627173A, “Phosphonoacetic acid derivatives and their use for treating degenerative joint disorders” (Hoechst Aktiengesellschaft, priority 1995, dated 1997):
≈ marks a conversion by molar mass, not a printed value.

Key:
[1] = tested on: isolated strips of guinea pig lung; test: Antagonism of LTD4-induced contraction of isolated strips of guinea pig lung; settings: Cavia porcellus; agonist LTD4; read-out: Anticontractile effect (lung), concentration range corresponding to the IC50 value
Excerpt: (§1) The test was based on the same principle as the test indicated in Pharmacological Test 5; however, strips of lung were used in this case.
(§2) The guinea pig was sacrificed under anesthesia with laughing gas. The entire lung tract was cut out starting from the trachea. The lobes of the lungs were cut in circular fashion to produce strips about 3 mm wide. The strips of the upper lobes were divided up in order to obtain a total of six strips of approximately equal size. The strips were suspended in the organ baths under a preload of 4 g. Modified Krebs-Henseleit solutions were used as nutrient solution. When platelet activating factor (PAF) was used as agonist, the composition of this solution corresponded to that for the agonist SP in Pharmacological Test 5; a Krebs-Henseleit solution as in the case of the agonist KCI (Pharm. Test 5) was used for the agonist LTD4. 95% by volume 02, 5% by volume CO2 was bubbled through the bath, and the bath temperature was 37° C. The test is carried out by a therapeutic/cumulative method with dose levels of 1, 3, 6 and 10 μg/ml.
(§3) The test animals, organ bath, vehicle, mode of administration corresponded to that stated for Pharmacological Test 5.

[2] = tested on: isolated strips of guinea pig lung; test: Antagonism of PAF-induced contraction of isolated strips of guinea pig lung; settings: Cavia porcellus; agonist PAF; read-out: Anticontractile effect (lung), concentration range corresponding to the IC50 value
Excerpt: as §1, §2, §3

matrix metalloproteases = test: Inhibition of matrix metalloproteases (MMP from rabbit synoviocytes HIG-82, fluorescent substrate); assay type: biochemical
Description: After confluent cell growth, the MMP expression was induced in the serum-free 3F12 HAM medium by adding 0.3 μmol/l phorbol 12-myristate 13-acetate. The supernatant was removed after incubating at 37° C. for 20 hours.
Activation of the MMP: The supernatant was activated with trypsin (5 μg/ml). After 15 minutes at 37° C., the activation was stopped by adding 1 mmol/l phenylmethylsulfonyl fluoride (PMSF) and incubating for a further 10 minutes. The total volume of the mixture was 210 μl.
The test substance was added in the stated concentration (see table). […] The reaction was stopped after 30 minutes by adding 10 mmol/l EDTA. The total-volume of the mixture was 320 μl . The parameters measured were the fluorescence intensities at […]. In order to take account of the possible intrinsic fluorescence of the test substances, the fluorescence intensities from parallel measurements without substrate were subtracted from the measurements with substrate. All the steps took place at 20° C.

interleukin-1β = test: Inhibition of release of interleukin-1β from human mononuclear cells; assay type: cell-based; settings: 10 .parallel.mol/l (so in the source), IL-1β, LPS-stimulated, 20 to 22 hours
Description: Obtaining mononuclear cells from human blood: 10 ml of human blood stabilized with 1 ml of 3.8 percent sodium citrate solution were diluted with 10 ml of PM16 (Serra, Heidelberg), and an underlayer of 15 ml of Lymphoprep (Dr. Molter GmbH, Heidelberg) was introduced. The samples were centrifuged at 400 x g (Minifuge 2 Heraeus, Osterode) at room temperature for 40 minutes. The mononuclear cells were visible as a white ring at the Lymphoprep/plasma boundary. This ring was cautiously removed with a syringe, diluted with the same volume of PM16 and centrifuged at 400 x g for 10 minutes. The precipitate was washed with ^~ 10 ml of RPMI1640 (+300 mg/I L-glutamine, Gibco, Eggenstein). After the cells had been suspended in ^~ 1 ml of RPMI1640 (+300 mg/I L-glutamine, +25 mM HEPES, +100 μg/ml streptomycin, +100 μg/ml penicillin), the cell density was determined with a JT Coulter Counter (Coulter Diagnostics) and adjusted to 5.10^6 /ml. 90% of the resulting cells were lymphocytes and 10% were monocytes.
Inhibition of release of interleukin-1β: 230 μl of mononuclear cells were incubated with 10 μl of test substance (10 μM in dimethyl sulfoxide (DMSO)/water=1/10) and 10 μl of a lipopolysaccharide solution (500 μg dissolved in 1 ml of DMSO and diluted 1/10 with water before starting the test, from Salmonella abortus equi, (Sigma, Deisenhofen) at 37° C., 5% CO2 for 20 to 22 hours. The samples were cooled to 0° C. in an ice bath and centrifuged in a Sigma centrifuge (2 minutes; 2000 revolutions per minute (rpm)). Aliquots of the supernatant were determined using a commercially available ELISA 5(Biermann, Bad Nauheim).
All active substances were tested at a concentration of 10 .parallel.mol/l. IL-1β release was tested in each case.

[3] = tested on: isolated guinea pig trachea; test: Antagonism of KCl-induced contraction of the isolated guinea pig trachea; settings: Cavia porcellus; agonist KCl; read-out: Anticontractile effect (trachea), concentration range needed to bring about a dilatation corresponding to the ED50 range
Excerpt: (§4) The compounds according to the invention are used as antagonists of the contraction of various parts of organs, in this case the isolated guinea pig trachea. The agonists used were KCl, PGF2a, calcium ionophore A23187 and substance P:
Products with a non-specific effect generally show a spasmolytic effect with respect to all agonists. KCI is representative here of non-specific, receptor-independent contraction because KCl-induced contractions are produced predominantly physically, that is to say by increasing the K+ concentration in the outside medium, and change the resting potential of the cell.
(§5) The guinea pigs were sacrificed by lethal anesthesia with laughing gas. The trachea was dissected out over its entire length and cut into 15 individual cartilage rings. In each case five rings were connected together to form a chain and fixed in an organ bath under a preload of 3 g. After an equilibration period of 45 minutes, a contraction was induced with the agonist. Cumulative addition of the antagonist (test product) took place at the plateau 5 of the maximum. Evaluation took place as % change in strength based on the maximum contraction. The test was carried out at 37° C., and the physiological nutrient solution used was a modified Krebs-Henseleit solution through which 95% by volume 02 and 5% by volume CO2 was bubbled.
(§6) Test animals: Albino guinea pigs (102), weight: 200 to 300 g, male or female
(§7) Composition of the organ bath (nutrient solution):
(§8) Vehicle: Double-distilled water, ethanol or isopropanol; Administration: into the organ bath Number of administrations: cumulative, single doses for SP

[4] = tested on: isolated guinea pig trachea; test: Antagonism of PGF2α-induced contraction of the isolated guinea pig trachea; settings: Cavia porcellus; agonist PGF2α; read-out: Anticontractile effect (trachea), concentration range needed to bring about a dilatation corresponding to the ED50 range
Excerpt: as §4
Inhibition of contractions induced by this cyclooxygenase product is possible only by competitive antagonism at the receptor or of the downstream signal pathway.
as §5, §6, §7, §8

[5] = tested on: isolated guinea pig trachea; test: Antagonism of substance P-induced contraction of the isolated guinea pig trachea; settings: Cavia porcellus; agonist substance P; read-out: Anticontractile effect (trachea), concentration range needed to bring about a dilatation corresponding to the ED50 range
Excerpt: as §4
Antagonism is possible on the one hand by specific receptor antagonists, and on the other hand by inhibition of the downstream signal pathway.
as §5, §6, §7, §8

SMILES	IC50 [1] [µg/mL]	Inhibition of MMP, Inhibition (%) (matrix metalloproteases; 30 μM)	Inhibition of MMP, Inhibition (%) (matrix metalloproteases; 100 μM)	inhibition at 10 µM (interleukin-1β) [%]	other results
CCOC(=O)C(Cc1ccc(OC(C)=O)c(OC(C)=O)c1)P(=O)(OCC)OCC (racemic) [Compound 61, Ethyl 3-(3,4-diacetoxyphenyl)-2-(diethoxyphosphinyl) propionate (rac.)]	> 10				IC50 [2]: ~3 µg/mL (≈ 6.97 µM)
CCCCCCCCCCCCOc1cc(C=C(C#N)P(=O)(OCC)OCC)ccc1OC [Compound 1]	> 10				IC50 [2]: 1 to 3 µg/mL (≈ 2.09 to 6.26 µM)
CCOP(=O)(OCC)C(C#N)=Cc1ccc(OC)c(OCc2ccc(CBr)cc2)c1 [Compound 4]	3 to 6 (≈ 6.07 to 12.1 µM)				IC50 [2]: 1 to 3 µg/mL (≈ 2.02 to 6.07 µM)
COc1ccc(C=C(C(=O)OC(C)C)P(=O)(OC)OC)cc1OCc1ccccc1 [Compound 14]		19	50		
COc1ccc(C=C(C(=O)OC(C)C)P(=O)(OC)OC)cc1OC1CCCC1 [Compound 21]		19	51		
COP(=O)(OC)C(Cc1ccc(OCc2ccccc2)c(OCc2ccccc2)c1)C(=O)OC(C)C (stereo not drawn) [Compound 25]		24			
COc1ccc(C=C(C(=O)OC(C)C)P(=O)(OC)OC)cc1O [Compound 26, Isopropyl 2-(dimethoxyphosphinyl)-3-(3-hydroxy-4-methoxy-phenyl)propenoate]			51	59	Inhibition of MMP, Inhibition (%) (matrix metalloproteases; 10 μM): 15%
COP(=O)(OC)C(=Cc1ccc(OCc2ccccc2)c(OCc2ccccc2)c1)C(=O)OC(C)C [Compound 27]		24	48	99	
COc1cc(C=C(C(=O)OC(C)C)P(=O)(OC)OC)cc(OC)c1 [Compound 28]			9		
COc1cc(C=C(C(=O)OC(C)C)P(=O)(OC)OC)cc(OC)c1OC [Compound 31]		12	35	97	Inhibition of MMP, Inhibition (%) (matrix metalloproteases; 10 μM): 8%
COc1ccc(C=C(C(=O)OC(C)C)P(=O)(OC)OC)c(OC)c1 [Compound 32]		22	52	80	Inhibition of MMP, Inhibition (%) (matrix metalloproteases; 10 μM): 12%
CCOP(=O)(OCC)C(C#N)Cc1ccc(OC)c(OC)c1 (stereo not drawn) [Compound 34, 2-(diethoxyphosphinyl)-3-(3,4-dimethoxy-phenyl)propiononitrile]					EC50 [3]: > 10 µg/mL; EC50 [4]: > 10 µg/mL; EC50 [5]: 1 to 10 µg/mL (≈ 3.06 to 30.6 µM)
COc1cc(OC)c(OC)cc1C=C(C(=O)OC(C)C)P(=O)(OC)OC [Compound 35]		21	52	83	
COc1cc(CC(C(=O)OC(C)C)P(=O)(OC)OC)cc(OC)c1OC (stereo not drawn) [Compound 36]				15	
COc1ccc(C=C(C(=O)OC(C)C)P(=O)(OC)OC)cc1OC [Compound 39]	~10 (≈ 27.9 µM)	19	47	63	Inhibition of MMP, Inhibition (%) (matrix metalloproteases; 10 μM): 16%
COc1ccc(CC(C(=O)OC(C)C)P(=O)(OC)OC)cc1OC (stereo not drawn) [Compound 41]	> 10			11	IC50 [2]: 1 to 3 µg/mL (≈ 2.78 to 8.33 µM)
COP(=O)(OC)C(=Cc1ccc2c(c1)OCO2)C(=O)OC(C)C [Compound 42]	> 10			77	IC50 [2]: 3 to 6 µg/mL (≈ 8.76 to 17.5 µM)
CCOP(=O)(OCC)C(C#N)=Cc1ccc(OC)cc1OC [Compound 44]					EC50 [3]: > 10 µg/mL; EC50 [4]: ~6 µg/mL (≈ 18.4 µM); EC50 [5]: 10 to 30 µg/mL (≈ 30.7 to 92.2 µM)
CCOP(=O)(OCC)C(Cc1ccc(OS(C)(=O)=O)c(OS(C)(=O)=O)c1)C(=O)OC(C)C (stereo not drawn) [Compound 46]	~10 (≈ 19.4 µM)				IC50 [2]: 1 to 3 µg/mL (≈ 1.94 to 5.81 µM)
CCOP(=O)(OCC)C(=Cc1c(OC)cccc1OC)C(=O)OC(C)C [Compound 48]		9	26		Inhibition of MMP, Inhibition (%) (matrix metalloproteases; 10 μM): 7%
CCOP(=O)(OCC)C(=Cc1ccc(OC(C)=O)c(OC(C)=O)c1)C(=O)OC [Compound 49]		8	28		
COc1ccc(C=C(C(=O)OC(C)C)P(=O)(O)O)cc1OC [Compound 50]			14		
CC(C)OC(=O)C(=Cc1ccc(OCc2ccccc2)c(OCc2ccccc2)c1)P(=O)(O)O [Compound 51, Ammonium hydrogen 2-(3,4-dibenzyloxybenzylidene)-isopropoxycarbonylmethanephosphonate]			14		
CCOP(=O)(OCC)C(C#N)=Cc1ccc(OC(C)=O)c(OC(C)=O)c1 [Compound 56, 3-(3,4-Diacetoxyphenyl)-2-(diethoxyphosphinyl) acrylonitrile]	3 to 6 (≈ 7.87 to 15.7 µM)				IC50 [2]: 1 to 3 µg/mL (≈ 2.62 to 7.87 µM)
CCOP(=O)(OCC)C(=Cc1ccc(OS(C)(=O)=O)c(OS(C)(=O)=O)c1)C(=O)OC(C)C [Compound 63]				92	
CCOP(=O)(OCC)C(C#N)=Cc1ccc2c(c1)OCCO2 [Compound 70]	~6 (≈ 18.6 µM)				
